Reference: patent US6544979B1, “Fused imidazole derivatives for improving oral bioavailability of pharmaceutical agents” (Janssen Pharmaceuticals, N.V., priority 1997, dated 2003)
Values belong to the compound of their own block, whether it stands above or below them.

Assays:
[1] = system: P388/ADR (adriamycine resistance cell line) murine leukemia; assay: MDR in vivo test: reversal of adriamycine resistance in P388/ADR murine leukemia, survival; set-up: species or system mice; details: for MST %: control = 100%
Protocol: Male B6D2F1 mice (18-21 g) were injected intraperitoneally with 1×10^5 P388/ADR cells at day 0. Daily intraperitoneal treatment with adriamycine, a test compound of formula (I) or a combination of both was installed from day 1 until day 10. Control animals received the vehicle (15% 4-OH-propyl-β-cyclodextrine in saline). Each group consisted of 8 animals. Adriamycine was dosed at a concentration of 1.25 mg/kg body weight, half the maximal tolerable dose of adriamycine in this treatment schedule. The test compound was dosed at 20, 10, 5, 2.5, 1.25 and 0.63 mg/kg either as single treatment or combined with adriamycine.
Survival of the animals was recorded each day and expressed as a percentage of the median survival in the treated groups compared to the median survival in the control group, the latter to be said to be 100%.
Table C-1 lists the effect of compound 6 and adriamycine on the survival of mice injected with P388/ADR leukemia.
doses of compound 6 and adriamycine are expressed as mg/kg body weight.
column “% Change vs. ADR” give the difference in MST% of the different groups compared to the MST% in the adriamycine-monotherapy group.

in vivo = details: mouse, po, 10 mg/kg
Protocol: The increase in drug bioavailability is defined as an increase in the Area Under the Curve (AUC). AUC is the integrated measure of systemic drug concentrations over time in units of mass-time/volume. The AUC from time zero (the time of dosing) to time infinity (when no drug remains in the body) following the administration of a drug dose is a measure of the exposure of the test subject, i.e. an animal or a human patient, to the drug.
Mice were treated orally (80 mg/kg po) with compound (6) about 10 to 20 minutes prior to oral administration of taxol (10 mg/kg po). The Area Under the Curve (AUC) was measured and compared with the AUC of mice treated only with taxol.

[2] = compound 6 0.63 mg/kg combined with adriamycine 1.25 mg/kg
[3] = compound 6 0.63 mg/kg single treatment
[4] = compound 6 1.25 mg/kg combined with adriamycine 1.25 mg/kg
[5] = compound 6 1.25 mg/kg single treatment
[6] = compound 6 2.5 mg/kg combined with adriamycine 1.25 mg/kg
[7] = compound 6 2.5 mg/kg single treatment
[8] = compound 6 5 mg/kg combined with adriamycine 1.25 mg/kg
[9] = compound 6 5 mg/kg single treatment
[10] = compound 6 10 mg/kg combined with adriamycine 1.25 mg/kg
[11] = compound 6 10 mg/kg single treatment
[12] = compound 6 20 mg/kg combined with adriamycine 1.25 mg/kg
[13] = compound 6 20 mg/kg single treatment
[14] = adriamycine 1.25 mg/kg alone, ip daily day 1-10

Structure (SMILES): COC(=O)c1cnc2n1CCc1ccccc1C2=C1CCN(CCc2ccc(OCc3ccc4ccccc4n3)cc2)CC1 [Compound 6, methyl 6,11-dihydro-11-[1-[2-[4-(2-quinolinylmethoxy)phenyl]ethyl]-4-piperidinylidene]-5H-imidazo[2,1-b][3]-benzazepine-3-carboxylate]
- % Change vs. ADR [1, 2]: 14%
- Survival Days med(min-max) ([1]; compound 6 0.63 mg/kg combined with adriamycine 1.25 mg/kg, ip daily day 1-10): 14.5(14->30) Days
- MST % [1, 2]: 132%
- % Change vs. ADR [1, 3]: −18%
- Survival Days med(min-max) ([1]; compound 6 0.63 mg/kg single treatment, ip daily day 1-10): 11(10-12) Days
- MST % [1, 3]: 100%
- % Change vs. ADR [1, 4]: 18%
- Survival Days med(min-max) ([1]; compound 6 1.25 mg/kg combined with adriamycine 1.25 mg/kg, ip daily day 1-10): 15(14-17) Days
- MST % [1, 4]: 136%
- % Change vs. ADR [1, 5]: −13%
- Survival Days med(min-max) ([1]; compound 6 1.25 mg/kg single treatment, ip daily day 1-10): 11.5(10-16) Days
- MST % [1, 5]: 105%
- % Change vs. ADR [1, 6]: 14%
- Survival Days med(min-max) ([1]; compound 6 2.5 mg/kg combined with adriamycine 1.25 mg/kg, ip daily day 1-10): 14.5(10-20) Days
- MST % [1, 6]: 132%
- % Change vs. ADR [1, 7]: −23%
- Survival Days med(min-max) ([1]; compound 6 2.5 mg/kg single treatment, ip daily day 1-10): 10.5(10-12) Days
- MST % [1, 7]: 95%
- % Change vs. ADR [1, 8]: 14%
- Survival Days med(min-max) ([1]; compound 6 5 mg/kg combined with adriamycine 1.25 mg/kg, ip daily day 1-10): 14.5(11-16) Days
- MST % [1, 8]: 132%
- % Change vs. ADR [1, 9]: −18%
- Survival Days med(min-max) ([1]; compound 6 5 mg/kg single treatment, ip daily day 1-10): 11(10-13) Days
- MST % [1, 9]: 100%
- % Change vs. ADR [1, 10]: 18%
- Survival Days med(min-max) ([1]; compound 6 10 mg/kg combined with adriamycine 1.25 mg/kg, ip daily day 1-10): 15(14-28) Days
- MST % [1, 10]: 136%
- % Change vs. ADR [1, 11]: −23%
- Survival Days med(min-max) ([1]; compound 6 10 mg/kg single treatment, ip daily day 1-10): 10.5(10-13) Days
- MST % [1, 11]: 95%
- % Change vs. ADR [1, 12]: 23%
- Survival Days med(min-max) ([1]; compound 6 20 mg/kg combined with adriamycine 1.25 mg/kg, ip daily day 1-10): 15.5(14-17) Days
- MST % [1, 12]: 141%
- % Change vs. ADR [1, 13]: −18%
- Survival Days med(min-max) ([1]; compound 6 20 mg/kg single treatment, ip daily day 1-10): 11(10-14) Days
- MST % [1, 13]: 100%

Structure (SMILES): COc1cccc2c1C(=O)c1c(O)c3c(c(O)c1C2=O)C[C@@](O)(C(=O)CO)C[C@@H]3O[C@H]1C[C@H](N)[C@H](O)[C@H](C)O1 [Adriamycine, adriamycine, reference compound]
- % Change vs. ADR [1, 14]: 0%
- Survival Days med(min-max) [1, 14]: 13(12-15) Days
- MST % [1, 14]: 118%

Structure (SMILES): CC(=O)O[C@H]1C(=O)[C@@]2(C)[C@H]([C@H](OC(=O)c3ccccc3)[C@]3(O)C[C@H](OC(=O)[C@H](O)[C@@H](NC(=O)c4ccccc4)c4ccccc4)C(C)=C1C3(C)C)[C@]1(OC(C)=O)CO[C@@H]1C[C@@H]2O [taxol, paclitaxel]
- AUC (in vivo): 820 ± 110 ng·h/mL

The remaining lines, values ahead:

- melting point: 174.2 °C
Structure (SMILES): O=C(O)c1cnc2n1CCc1ccccc1C2=C1CCN(CCc2ccc(OCc3ccc4ccccc4n3)cc2)CC1 [Compound 7, 6,11-dihydro-11-[1-[2-[4-(2-quinolinylmethoxy)phenyl]ethyl]-4-piperidinylidene]-5H-imidazo[2,1-b][3]benzazepine-3-carboxylic acid]

- melting point: 242.1 °C
Structure (SMILES): OC1Cn2ccnc2C(=C2CCN(CCc3ccc(OCc4ccc5ccccc5n4)cc3)CC2)c2ccsc21 (racemic) [Compound 28, (±)-6,10-dihydro-10-[1-[2-[4-(2-quinolinylmethoxy)-phenyl]ethyl]-4-piperidinylidene]-5H-imidazo[1,2-a]-thieno[3,2-d]azepin-6-ol]

- melting point: 214.8 °C
Structure (SMILES): COc1cc(CN2CCC(=C3c4ccccc4CCn4ccnc43)CC2)cc(OC)c1OCc1ccc2ccccc2n1 [Compound 32, 11-[1-[[3,5-dimethoxy-4-(2-quinolinylmethoxy)-phenyl]methyl]-4-piperidinylidene]-6,11-dihydro-5H-imidazo[2,1-b][3]benzazepine]

- melting point: 193.5 °C
Structure (SMILES): O=Cc1cnc2n1CCc1ccccc1C2=C1CCN(CCc2ccc(OCc3ccc4ccccc4n3)cc2)CC1 [Compound 4, 6,11-dihydro-11-[1-[2-[4-(2-quinolinylmethoxy)phenyl]ethyl]-4-piperidinylidene]-5H-imidazo[2,1-b][3]benzazepine-3-carboxaldehyde]
